Experimental findings from ChEMBL document CHEMBL2029318, “Synthesis and SAR of selective small molecule neuropeptide Y Y2 receptor antagonists” (Bioorg Med Chem Lett, 2012) are described below.

What all share (format): functional
For assay [1], the target named is T1, Neuropeptide Y receptor type 1 (Homo sapiens) (UniProt P25929).
T1 sequence (whole entry): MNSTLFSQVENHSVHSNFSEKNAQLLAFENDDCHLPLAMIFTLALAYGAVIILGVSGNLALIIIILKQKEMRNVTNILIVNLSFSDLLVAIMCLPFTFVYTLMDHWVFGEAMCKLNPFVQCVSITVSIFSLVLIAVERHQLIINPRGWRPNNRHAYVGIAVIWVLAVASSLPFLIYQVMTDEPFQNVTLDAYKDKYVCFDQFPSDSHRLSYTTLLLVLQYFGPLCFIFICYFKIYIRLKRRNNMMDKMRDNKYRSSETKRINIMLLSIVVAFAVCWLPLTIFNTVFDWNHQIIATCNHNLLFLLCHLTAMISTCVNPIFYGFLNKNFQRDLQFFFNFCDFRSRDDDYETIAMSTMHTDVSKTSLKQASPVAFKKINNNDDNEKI
In words: Antagonist activity at neuropeptide Y receptor Y1 at 10 uM.

In assay [2] the target is T2, Neuropeptide Y receptor type 2 (Homo sapiens, UniProt P49146).
T2 sequence (P49146 whole entry): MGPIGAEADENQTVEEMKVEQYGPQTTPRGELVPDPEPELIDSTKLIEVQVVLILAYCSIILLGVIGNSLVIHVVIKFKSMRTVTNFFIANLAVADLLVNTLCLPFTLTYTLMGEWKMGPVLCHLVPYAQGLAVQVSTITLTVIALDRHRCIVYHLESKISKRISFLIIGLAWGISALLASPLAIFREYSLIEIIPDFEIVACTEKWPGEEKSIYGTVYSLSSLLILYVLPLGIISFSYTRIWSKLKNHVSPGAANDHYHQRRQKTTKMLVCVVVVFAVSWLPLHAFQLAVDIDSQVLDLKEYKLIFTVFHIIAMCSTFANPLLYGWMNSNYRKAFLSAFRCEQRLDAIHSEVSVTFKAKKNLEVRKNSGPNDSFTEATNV
Nature of the assay: Antagonist activity at neuropeptide Y receptor Y2.

Assay [3] addresses T3, Neuropeptide Y receptor type 2 (Homo sapiens) (UniProt P49146).
T3 sequence (whole entry): T2 sequence (P49146 whole entry)
Nature of the assay: Antagonist activity at neuropeptide Y receptor Y2 at 10 uM.

The structures appear in SMILES notation. pIC50: −log10 of the molar value. The source made the active and inactive calls.

Turning to `CN(C)S(=O)(=O)c1ccc(NC(=S)N2CCC(C(O)(c3ccccc3)c3ccc(F)cc3)CC2)cc1` (stereo not drawn), the outcome in assay [1] was inactive. The pIC50 in assay [2] is 7.05. On to `CCS(=O)(=O)c1ccc(OC(=O)N2CCC(C(O)(c3ccccc3)c3ccccc3)CC2)cc1`, for which the outcome in assay [1] was inactive. The compound further showed a pIC50 in assay [2] of 7.23. The matching figures for `CCOc1ccc(NC(=S)N2CCC(C(O)(c3ccccc3)c3ccccc3)CC2)cc1`: “inactive” and 6.72. Taken in the same sequence, the figures for `OC(c1ccccc1)(c1ccccc1)C1CCN(C(=S)Nc2ccc(C(F)(F)F)cc2)CC1` were “inactive” and 6.75. `CCNC(=O)c1ccc(NC(=S)N2CCC(C(O)(c3ccccc3)c3ccccc3)CC2)cc1`: the outcome in assay [1] was inactive. In addition, the pIC50 in assay [2] was 6.69.

As for `CCOc1ccc(NC(=S)N2CCC(C(O)(c3ccccc3)c3ccccc3)CC2)cc1C#N`, the result in assay [1] was inactive. The same compound gave a pIC50 in assay [2] of 6.49. For the compound `CCOc1ccc(NC(=S)N2CCC(=C(c3ccccc3)c3ccccc3)CC2)cc1`, the result in assay [1] and in assay [3] was inactive. For the compound `CN(C)c1ccc(NC(=S)N2CCC(C(O)(c3ccccc3)c3ccccc3)CC2)cc1`, the result in assay [1] was inactive. This compound also gave a negative-log IC50 (pIC50) in assay [2] of 6.21. As for `CC(C)Oc1ccc(NC(=S)N2CCC(C(O)(c3ccccc3)c3ccccc3)CC2)cc1`, in assay [1], the result was inactive. In addition, the pIC50 in assay [2] is 5.75.

`COc1cccc(-c2nc(-c3ccc(NC(=O)Cc4ccccc4OC)cc3)no2)c1` showed a pIC50 in assay [2] of 5.92. As to `CS(=O)(=O)Nc1ccc(OC(=O)N2CCC(C(O)(c3ccccc3)c3ccccc3)CC2)cc1`, the result in assay [1] was inactive. Further, the pIC50 in assay [2] was 6.40. Taken in the same sequence, the figures for `CN(C)S(=O)(=O)c1ccc(OC(=O)N2CCC(C(O)(c3ccccc3)c3ccccc3)CC2)cc1` were “inactive” and 7.21. Taken in the same sequence, the figures for `CCOC(=O)c1ccc(NC(=S)N2CCC(C(c3ccccc3)c3ccccc3)CC2)cc1` were “inactive” and 5.17. The matching figures for `CCOc1ccc(OC(=O)N2CCC(C(O)(c3ccccc3)c3ccccc3)CC2)cc1`: “inactive” and 5.80. Turning to `OC(c1ccccc1)(c1ccccc1)C1CCN(C(=S)Nc2ccccc2)CC1`, the outcome in assay [1] and in assay [3] was inactive.

As for `CN(C)S(=O)(=O)c1ccc(NC(=S)N2CCN(C3c4ccccc4CCc4ccccc43)CC2)cc1`, the outcome in assay [1] and in assay [3] was inactive. For the compound `CCOc1ccc(NC(=S)N2CCC(C(O)c3ccccc3)CC2)cc1` (stereo not drawn), the outcome in assay [1] and in assay [3] was inactive.

Regarding `CCN(CC)S(=O)(=O)c1ccc(OC(=O)N2CCC(C(O)(c3ccccc3)c3ccccc3)CC2)cc1`, the outcome in assay [1] was inactive. The same compound showed a pIC50 in assay [2] of 7.92. With `CCN(CC)C(=O)c1ccc(OC(=O)N2CCC(C(O)(c3ccccc3)c3ccccc3)CC2)cc1`, in assay [1], the outcome was inactive. The compound also showed a pIC50 in assay [2] of 6.66. The matching figures for `CCOc1ccc(NC(=S)N2CCC(C(O)(c3ccccc3)c3c(C)noc3C)CC2)cc1` (stereo not drawn): “inactive” and 5.48. The matching figures for `COc1ccc(NC(=S)N2CCC(C(O)(c3ccccc3)c3ccccc3)CC2)cc1`: “inactive” and 5.96. Turning to `CC(=O)Nc1ccc(OC(=O)N2CCC(C(O)(c3ccccc3)c3ccccc3)CC2)cc1`, the outcome in assay [1] and in assay [3] was inactive. Regarding `CCOC(=O)c1ccc(NC(=S)N2CCC(C(O)(c3ccccc3)c3ccccc3)CC2)cc1`, the result in assay [1] was inactive. For the same compound, the pIC50 in assay [2] was 6.68. Take `O=C(Oc1ccc(S(=O)(=O)N2CCCC2)cc1)N1CCC(C(O)(c2ccccc2)c2ccccc2)CC1`: the outcome in assay [1] was inactive. Further, the negative-log IC50 (pIC50) in assay [2] is 7.31. Take `CC(C)Oc1ccc(NC(=S)N2CCC(C(O)(c3ccccc3)c3ccccc3)CC2)cc1C#N`: the outcome in assay [1] was inactive. In assay [2], this compound gave a pIC50 of 6.05. As for `CCOc1ccc(NC(=S)N2CCC(C(O)(c3ccccc3)c3ccccc3)CC2)c(C)c1`, the outcome in assay [1] and in assay [3] was inactive. For `CN(C)S(=O)(=O)c1ccc(NC(=S)N2CCC(C(O)(c3ccccc3)c3ccsc3)CC2)cc1` (stereo not drawn), the outcome in assay [1] was inactive. Besides, the pIC50 in assay [2] is 6.61. The matching figures for `CN(C)S(=O)(=O)c1ccc(NC(=S)N2CCN(C(c3ccccc3)c3ccccc3)CC2)cc1`: “inactive” and 6.32. Taken in the same sequence, the figures for `CN(C)C(=O)c1ccc(NC(=S)N2CCC(C(O)(c3ccccc3)c3ccccc3)CC2)cc1` were “inactive” and 6.52. On to `CCN(CC)C(=O)c1cccc(OC(=O)N2CCC(C(O)(c3ccccc3)c3ccccc3)CC2)c1`, for which the outcome in assay [1] and in assay [3] was inactive. Turning to `CCN(CC)S(=O)(=O)c1cccc(OC(=O)N2CCC(C(O)(c3ccccc3)c3ccccc3)CC2)c1`, the outcome in assay [1] and in assay [3] was inactive.

Take `OC(c1ccccc1)(c1ccccc1)C1CCN(C(=S)Nc2cccc(C(F)(F)F)c2)CC1`: the outcome in assay [1] and in assay [3] was inactive. On to `CCN(CC)S(=O)(=O)c1ccc(NC(=S)N2CCC(C(O)(c3ccccc3)c3ccccc3)CC2)cc1`, for which, in assay [1], the outcome was inactive. In assay [2], this compound had a pIC50 of 6.87. The matching figures for `CCCc1ccc(NC(=S)N2CCC(C(O)(c3ccccc3)c3ccccc3)CC2)cc1`: “inactive” and 6.11. For `CN(C)S(=O)(=O)c1ccc(NC(=S)N2CCC(C(O)(c3ccccc3)c3cccnc3)CC2)cc1` (stereo not drawn), the outcome in assay [1] and in assay [3] was inactive. With `OC(c1ccccc1)(c1ccccc1)C1CCN(C(=S)Nc2ccc(OC(F)(F)F)cc2)CC1`, in assay [1], the outcome was inactive. The negative-log IC50 (pIC50) in assay [2] is 5.98. Taken in the same sequence, the figures for `CCN(CC)c1ccc(NC(=S)N2CCC(C(O)(c3ccccc3)c3ccccc3)CC2)cc1Cl` were “inactive” and 7.07.

For the compound `CN(C)S(=O)(=O)c1ccc(NC(=S)N2CCC(C(O)(c3ccccc3)c3ccccn3)CC2)cc1` (stereo not drawn), the outcome in assay [1] was inactive. Also, the negative-log IC50 (pIC50) in assay [2] is 7.01. The matching figures for `CCOc1ccc(NC(=S)N2CCN(C(c3ccccc3)c3ccccc3)CC2)cc1`: “inactive” and 6.43.

On to `CN(C)S(=O)(=O)c1ccc(NC(=S)N2CCC(C(O)(c3ccccc3)c3ccccc3)CC2)cc1`, for which the result in assay [1] was inactive. In assay [2], this compound gave a negative-log IC50 (pIC50) of 7.72.

Consider `CCN(CC)c1ccc(NC(=S)N2CCC(C(O)(c3ccccc3)c3ccccc3)CC2)cc1`, for which the result in assay [1] was inactive. For the same compound, the negative logarithm of the IC50 (pIC50) in assay [2] was 7.14. For `Cc1ccc(S(=O)(=O)C(c2ccccc2)c2c(C)noc2C)cc1` (stereo not drawn), in assay [2], the negative-log IC50 (pIC50) is 5.36. In the case of `CS(=O)(=O)c1ccc(OC(=O)N2CCC(C(O)(c3ccccc3)c3ccccc3)CC2)cc1`, the result in assay [1] was inactive. Further, the negative-log IC50 (pIC50) in assay [2] is 6.85.

Regarding `CCOc1ccc(NC(=S)N2CCC(C(c3ccccc3)c3ccccc3)CC2)cc1`, the result in assay [1] was inactive. Besides, the negative logarithm of the IC50 (pIC50) in assay [2] is < 5.00. The matching figures for `CN(C)S(=O)(=O)c1ccc(NC(=S)N2CCN(C3c4ccccc4NC(=O)c4ccccc43)CC2)cc1` (stereo not drawn): “inactive” and 7.17. The matching figures for `CCN(CC)C(=O)c1ccc(NC(=S)N2CCC(C(O)(c3ccccc3)c3ccccc3)CC2)cc1`: “inactive” and 7.11. Taken in the same sequence, the figures for `CNC(=O)c1ccc(NC(=S)N2CCC(C(O)(c3ccccc3)c3ccccc3)CC2)cc1` were “inactive” and 5.85. For the compound `CCOc1ccc(NC(=S)N2CCC(C(O)(c3ccccc3)c3ccccc3)CC2)c(F)c1`, in assay [1], the result was inactive. In assay [2], this compound gave a pIC50 of 5.87. Regarding `Cc1ccc(C)c(NS(=O)(=O)c2cc(C(=O)Nc3ccccc3-c3ccccc3)ccc2C)c1`, in assay [2], the negative-log IC50 (pIC50) was 6.36. `COc1ccc(OC(=O)N2CCC(C(O)(c3ccccc3)c3ccccc3)CC2)cc1`: the outcome in assay [1] was inactive. In addition, in assay [2], the negative logarithm of the IC50 (pIC50) is 5.57.

As for `CCNS(=O)(=O)c1ccc(NC(=S)N2CCC(C(O)(c3ccccc3)c3ccccc3)CC2)cc1`, the outcome in assay [1] was inactive. The same compound gave a pIC50 in assay [2] of 6.92. The matching figures for `OC(c1ccccc1)(c1ccccc1)C1CCN(C(=S)Nc2ccc(N3CCCC3)cc2)CC1`: “inactive” and 5.92. The matching figures for `O=S(=O)(c1ccc(NC(=S)N2CCC(C(O)(c3ccccc3)c3ccccc3)CC2)cc1)N1CCCC1`: “inactive” and 6.93.
